# Reference: patent US20130122147A1, “METHODS FOR ENHANCING THE PALATABILITY OF COMESTIBLE COMPOSITIONS” (priority 2010, published 2013)
# System: dogs
# Test: Two-bowl choice palatability test of pet foods
# Format: in vivo
# Protocol: Palatability testing followed the industry standard protocol for assessing preference, i.e., the two-bowl choice test. The dogs were tested individually inside their kennels. The panels consisted of a mix of breeds, distributed as equally as possible. The dogs were at least 12 months of age and the sex distribution was as equal as possible within panels. A choice of two bowls each with the same amount food, the test and the control diets, was offered simultaneously. The maximum length of the time the products were offered to the dogs was 20 minutes. Water was available at all times via an automatic water system. Bowl assignment for the foods was always counterbalanced.
# At the end of a test, food consumption for each pet food for each dog was determined by subtracting the amount of food remaining in the bowls from what was initially offered to the dogs. A dog's preference was determined based on which food was most consumed.
# The experiment was repeated twice.
smiles,measurement,setting,value
"CCCCCCCC/C=C\CCCCCCCC(=O)NCCO [OEA, N-oleoyl-ethanolamide]",Effect of OEA on palatability of the pet food (result in words),food of Table 9 (0.41% OEA in basal meal) vs control Ex 7,enhanced the palatability
same,Effect of OEA on palatability of the pet foods (result in words),foods of Table 8 (0.066-0.566% OEA) vs control Ex 1,enhanced the palatability
